Reference: PubChem BioAssay AID256 (DTP/NCI, 2004)
Toxic doses and inconclusive results are not listed. Rule for the calls: active = survival T/C of 150% or more; inactive = T/C below 125% in these data.

System: CD2F1 mice, L1210 leukemia ip, survival T/C
Experiment: NCI In Vivo Anticancer Drug Screen. Data for tumor model L1210 Leukemia (intraperitoneal) in CD2F1 (CDF1) mice
Details: endpoint: mean survival time, higher = longer survival
Summary of the method: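 In this screen, transplantable tumors were grown in mice given either the compound or its vehicle. Results were expressed as the treated measurement relative to the control measurement.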

Measured: T/C

O=N/N=c1/c2[nH]cnc2ncn1O
inactive: dose: 12.5 mg/kg/injection, schedule: Q01DX005 (ip), vehicle: distilled water + Tween-80 110 % of control | dose: 25.0 mg/kg/injection, schedule: Q01DX005 (ip), vehicle: distilled water + Tween-80 93 % of control | dose: 50.0 mg/kg/injection, schedule: Q01DX005 (ip), vehicle: distilled water + Tween-80 89 % of control | dose: 100.0 mg/kg/injection, schedule: Q01DX005 (ip), vehicle: distilled water + Tween-80 88 % of control | dose: 200.0 mg/kg/injection, schedule: Q01DX005 (ip), vehicle: distilled water + Tween-80 93 % of control

O=C(O)CCCCCCCCC#CC#CCCCc1ccccc1
inactive: dose: 100.0 mg/kg/injection, schedule: Q04DX003 (ip), vehicle: Klucel (hydroxypropylcellulose) (HPC) 95 % of control | dose: 200.0 mg/kg/injection, schedule: Q04DX003 (ip), vehicle: Klucel (hydroxypropylcellulose) (HPC) 95 % of control | dose: 400.0 mg/kg/injection, schedule: Q04DX003 (ip), vehicle: Klucel (hydroxypropylcellulose) (HPC) 97 % of control
